Test results published in patent publication US20200323772A1, “TREATMENT OF INFLAMMATORY DISEASE USING INGESTIBLE DEVICE TO RELEASE IMMUNE MODULATOR” (Progenity, Inc., priority 2017, published 2020).

Assays:
[1] = Pharmacokinetic study of oral vs intra-cecal tacrolimus: blood, GI tissue, luminal and rectal content concentrations (Example 13); set-up: species or system Yorkshire-Cross farm swine; details: in vivo, 0.09 mg/kg
Text: (§1) No further randomization procedure was employed.

[2] = Tissue, plasma, rectal and GI content pharmacokinetics of tacrolimus, oral vs intra-cecal ingestible device (Example 10); set-up: species or system Yorkshire-Cross farm swine; details: in vivo
Protocol: The primary objective of this study was to compare the tissue, plasma, rectal sample, and GI content pharmacokinetics of tacrolimus through oral versus intra-cecal ingestible device delivery in normal Yorkshire-Cross farm swine.
as §1
Animals in Group 1 received an ingestible device containing 0.8 mL of vehicle solution (80% alcohol, 20% HCO-60). Animals in Group 2 received orally […] liquid formulation of tacrolimus at 4 mg/0.8 mL per animal (Prograf: 5 mg/mL). Animals in Group 3 received intra-cecally an ingestible device containing tacrolimus at 1 mg in 0.8 mL per ingestible device. Animals in Group 4 received intra-cecally an ingestible device containing tacrolimus at 2 mg in 0.8 mL per ingestible device. Animals in Group 5 received intra-cecally an ingestible device containing tacrolimus at 4 mg in 0.8 mL per ingestible device. To control for potential confounding effects of the surgery, all groups fast on Day −11 at least 24 hr before being subjected to anesthesia followed by surgical placements of a cecal port by a veterinary surgeon at Day −10. All animals were fasted for at least 12 hr prior to dosing on Day 1. Animals were dosed via either intra-cecal dosing (IC) or oral dosing (PO) at Day 1 (between 6-8 p.m.). All animals resumed feeding at approximately 4 hours after dose ([…]. after dosing).
Animals in Group 1 (Vehicle Control) were administered a single intra-cecal ingestible device containing 0.8 mL Vehicle solution (80% alcohol, 20% castor oil (HCO-60) on Day 1. On Day −10 the animals were anesthetized, and a veterinary surgeon surgically placed an intra-cecal port in each animal. On Day 1, each animal was placed into a sling then a single intra-cecal ingestible device containing 0.8 mL vehicle solution (80% alcohol, 20% castor oil (HCO-60)) is introduced by the veterinary surgeon into the cecum via the cecal port in each animal. Following ingestible device placement, the animals were removed from the slings and placed back into their pens with water. All animals resumed feeding at approximately 4 hours after dose. […] A total of 60 samples were collected.
Approximately 200˜400 mg of rectal content were collected, if available, with a fecal swab (Copan Diagnostics Nylon Flocked Dry Swabs, 502CS01). The fecal swab was pre-weighed and weighed after collection in the collection tube (Sterile Tube and Cap No Media, PFPM913S), and the sample weight was recorded. The fecal swab was broken via the breakpoint, and was stored in the collection tube, and immediately frozen at −70° C. […] Immediately following euthanasia, tissue was collected.
For tissue necropsy, small intestine fluid and cecal fluid were collected separately from all the animals into two separate square plastic bottles, and stored at −20° C. The length and diameter of the cecum and the colon was measured from one animal in each group and recorded for reference. Tissues were collected for pharmacokinetic analyses and include mesenteric lymph nodes, a Peyer's Patch, and five gastrointestinal sections, including cecum, proximal colon, transverse colon, distal colon, and rectum. All samples were weighed, and the tissue sample weights were recorded. […] Around 3 grams of the total punched sample were collected into a pre-weighed 15-mL conical tube, and the tissue weight was recorded. […]

[3] = female, Yorkshire-Cross, pig, po
[4] = female, Yorkshire-Cross, pig, po, 12 h

C=CC[C@@H]1/C=C(\C)C[C@H](C)C[C@H](OC)[C@H]2O[C@@](O)(C(=O)C(=O)N3CCCC[C@H]3C(=O)O[C@H](/C(C)=C/[C@@H]3CC[C@@H](O)[C@H](OC)C3)[C@H](C)[C@@H](O)CC1=O)[C@H](C)C[C@@H]2OC [tacrolimus]
Kp at 12 h [1, 3]: 0
Tissue (mean) (ng/g)/AUG(0-12 hr)(ng·hr/ml) Ratio [1, 4]: 0
Tissue (mean) (ng/g)/Trough(12 hr)(ng/ml) Ratio [1, 4]: 0
Trough (12 hr) [1, 4]: 0.568 ng/mL
concentration at 12 h ([1]; female, Yorkshire-Cross, pig, po, Trough (12 hr)): 0.568 ng/mL
AUC0-12 hours in the blood [1]: higher
mean concentration in the blood [1]: higher
systemic concentrations [2, 3]: equivalent to low dose IC group (0.02 mg/kg)
luminal content (spiral, transverse, and distal colon) concentrations [2]: Significantly higher
mean concentration in the cecum tissue and the proximate colon tissue [2]: higher
tissue (spiral and transverse colon) concentrations [2]: Significantly higher
level in tissue ([2]; po): No measurable level
